Legend:
Assay in all cases: KINOMEscan binding assay
[1] = target: T1, NEK4 (Homo sapiens, UniProt P51957); conditions: 1 µM i-CDK9; read-out: % Retention on Solid Support
T1 construct: purchased DiscoveRx KINOMEscan
Outline: (§1)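 Competitive displacement at the ATP site served as the measure. Over 400 kinases were included, each exposed to i-CDK9 at 1 and at 10 µM.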

[2] = target: T2, YANK3 (Homo sapiens, UniProt Q86UX6); conditions: read-out: % Retention on Solid Support
T2 construct: purchased DiscoveRx KINOMEscan
Outline: as §1

[3] = target: T3, SgK110 (Homo sapiens, UniProt P0C264); conditions: read-out: % Retention on Solid Support
T3 construct: purchased DiscoveRx KINOMEscan
Outline: as §1

[4] = target: T4, TAK1 (Homo sapiens, UniProt O43318); conditions: read-out: % Retention on Solid Support
T4 construct: purchased DiscoveRx KINOMEscan
T4 sequence (O43318 whole entry): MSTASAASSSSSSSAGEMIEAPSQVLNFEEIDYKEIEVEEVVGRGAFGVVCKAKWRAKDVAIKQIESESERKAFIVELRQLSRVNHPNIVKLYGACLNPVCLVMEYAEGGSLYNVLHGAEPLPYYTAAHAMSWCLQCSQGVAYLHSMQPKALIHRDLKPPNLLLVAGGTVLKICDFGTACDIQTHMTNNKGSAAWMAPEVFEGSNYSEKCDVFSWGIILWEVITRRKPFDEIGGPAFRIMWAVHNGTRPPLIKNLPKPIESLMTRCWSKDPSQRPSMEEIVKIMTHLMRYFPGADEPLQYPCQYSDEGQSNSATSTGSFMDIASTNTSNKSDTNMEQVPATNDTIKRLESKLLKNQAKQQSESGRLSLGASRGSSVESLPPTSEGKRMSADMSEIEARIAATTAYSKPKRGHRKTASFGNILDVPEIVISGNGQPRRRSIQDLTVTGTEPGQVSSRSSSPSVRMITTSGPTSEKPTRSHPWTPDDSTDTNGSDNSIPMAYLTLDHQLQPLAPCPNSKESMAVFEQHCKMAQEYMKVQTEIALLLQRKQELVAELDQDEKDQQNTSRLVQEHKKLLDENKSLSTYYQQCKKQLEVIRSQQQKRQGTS
Outline: as §1

[5] = target: T5, NEK6 (Homo sapiens, UniProt Q9HC98); conditions: read-out: % Retention on Solid Support
T5 construct: purchased DiscoveRx KINOMEscan
Outline: as §1

[6] = target: T6, p38-beta (Homo sapiens, UniProt Q15759); conditions: read-out: % Retention on Solid Support
T6 construct: purchased DiscoveRx KINOMEscan
Outline: as §1

[7] = target: T7, PRKD3 (Homo sapiens, UniProt O94806); conditions: read-out: % Retention on Solid Support
T7 construct: purchased DiscoveRx KINOMEscan
Outline: as §1

[8] = target: T8, PRKD1 (Homo sapiens, UniProt Q15139); conditions: read-out: % Retention on Solid Support
T8 construct: purchased DiscoveRx KINOMEscan
T8 sequence (Q15139 whole entry): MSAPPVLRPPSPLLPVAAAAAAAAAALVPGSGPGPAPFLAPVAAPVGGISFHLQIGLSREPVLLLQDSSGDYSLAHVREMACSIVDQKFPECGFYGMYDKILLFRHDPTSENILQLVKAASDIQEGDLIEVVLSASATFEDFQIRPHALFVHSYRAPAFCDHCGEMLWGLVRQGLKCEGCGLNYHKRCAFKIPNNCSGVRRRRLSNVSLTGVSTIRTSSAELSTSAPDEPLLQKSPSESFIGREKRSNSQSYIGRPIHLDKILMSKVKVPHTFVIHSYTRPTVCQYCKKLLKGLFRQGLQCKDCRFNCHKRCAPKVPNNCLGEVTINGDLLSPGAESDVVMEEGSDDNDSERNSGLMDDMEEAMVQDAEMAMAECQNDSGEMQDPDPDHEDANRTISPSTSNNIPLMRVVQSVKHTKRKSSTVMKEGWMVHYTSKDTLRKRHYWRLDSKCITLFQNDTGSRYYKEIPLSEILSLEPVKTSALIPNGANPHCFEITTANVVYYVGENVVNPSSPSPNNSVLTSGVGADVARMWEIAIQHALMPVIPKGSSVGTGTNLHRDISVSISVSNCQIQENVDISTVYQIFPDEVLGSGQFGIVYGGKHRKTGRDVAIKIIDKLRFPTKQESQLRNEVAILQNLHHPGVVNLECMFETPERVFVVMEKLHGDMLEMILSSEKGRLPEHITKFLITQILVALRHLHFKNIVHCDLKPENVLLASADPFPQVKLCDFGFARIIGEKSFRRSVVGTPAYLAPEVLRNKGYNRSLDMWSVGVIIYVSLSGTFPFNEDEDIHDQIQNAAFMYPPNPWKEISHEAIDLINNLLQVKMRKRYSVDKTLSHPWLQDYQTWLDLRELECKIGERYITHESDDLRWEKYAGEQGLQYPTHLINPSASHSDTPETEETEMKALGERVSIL
Outline: as §1

[9] = target: T9, DYRK1B (Homo sapiens, UniProt Q9Y463); conditions: read-out: % Retention on Solid Support
T9 construct: purchased DiscoveRx KINOMEscan
Outline: as §1

[10] = target: T10, ITK (Homo sapiens, UniProt Q08881)
T10 construct: purchased DiscoveRx KINOMEscan
T10 sequence (Q08881 whole entry): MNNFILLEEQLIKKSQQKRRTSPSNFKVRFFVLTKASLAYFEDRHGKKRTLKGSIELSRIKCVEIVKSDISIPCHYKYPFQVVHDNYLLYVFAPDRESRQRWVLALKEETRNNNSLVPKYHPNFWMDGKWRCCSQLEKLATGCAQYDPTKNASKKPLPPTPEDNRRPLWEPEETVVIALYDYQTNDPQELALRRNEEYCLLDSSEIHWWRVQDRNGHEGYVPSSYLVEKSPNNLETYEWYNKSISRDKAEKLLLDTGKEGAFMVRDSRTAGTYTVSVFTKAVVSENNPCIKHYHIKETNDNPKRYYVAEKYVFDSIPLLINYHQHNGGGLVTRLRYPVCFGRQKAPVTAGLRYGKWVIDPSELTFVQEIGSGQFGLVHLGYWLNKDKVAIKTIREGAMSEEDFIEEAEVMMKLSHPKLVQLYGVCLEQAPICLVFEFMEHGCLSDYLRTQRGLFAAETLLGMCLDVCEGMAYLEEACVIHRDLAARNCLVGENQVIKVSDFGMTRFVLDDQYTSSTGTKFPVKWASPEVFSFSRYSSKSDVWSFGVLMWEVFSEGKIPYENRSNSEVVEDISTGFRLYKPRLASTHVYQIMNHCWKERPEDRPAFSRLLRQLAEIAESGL
Outline: as §1

[11] = target: T11, HIPK4 (Homo sapiens, UniProt Q8NE63); conditions: read-out: % Retention on Solid Support
T11 construct: purchased DiscoveRx KINOMEscan
Outline: as §1

[12] = target: T12, KIT(V559D,V654A) (Homo sapiens, UniProt P10721, V559D/V654A); conditions: read-out: % Retention on Solid Support
T12 construct: purchased DiscoveRx KINOMEscan
Outline: as §1

[13] = target: T13, RSK3(Kin.Dom.1-N-terminal) (Homo sapiens, UniProt Q15349); conditions: read-out: % Retention on Solid Support
T13 construct: RSK3(Kin.Dom.1-N-terminal); purchased DiscoveRx KINOMEscan
Outline: as §1

[14] = target: T14, FLT1 (Homo sapiens, UniProt P17948); conditions: read-out: % Retention on Solid Support
T14 construct: purchased DiscoveRx KINOMEscan
Outline: as §1

[15] = target: T15, GSK3B (Homo sapiens, UniProt P49841); conditions: read-out: % Retention on Solid Support
T15 construct: purchased DiscoveRx KINOMEscan
T15 sequence (P49841 whole entry): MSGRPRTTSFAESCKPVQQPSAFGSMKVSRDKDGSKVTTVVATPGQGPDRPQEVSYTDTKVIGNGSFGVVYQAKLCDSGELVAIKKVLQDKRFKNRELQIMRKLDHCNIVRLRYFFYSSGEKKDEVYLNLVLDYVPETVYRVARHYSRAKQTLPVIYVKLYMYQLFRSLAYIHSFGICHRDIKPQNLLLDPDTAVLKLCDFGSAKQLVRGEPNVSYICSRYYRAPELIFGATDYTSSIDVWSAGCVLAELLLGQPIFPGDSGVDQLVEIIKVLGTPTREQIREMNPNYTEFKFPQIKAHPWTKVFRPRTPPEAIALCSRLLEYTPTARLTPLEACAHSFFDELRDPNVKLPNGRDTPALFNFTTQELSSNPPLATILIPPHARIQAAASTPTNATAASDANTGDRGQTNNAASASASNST
Outline: as §1

[16] = target: T16, ABL1-phosphorylated (Homo sapiens, UniProt P00519); conditions: 1 µM i-CDK9; read-out: % Retention on Solid Support
T16 construct: purchased DiscoveRx KINOMEscan
Outline: as §1

[17] = target: T17, CSNK1G2 (Homo sapiens, UniProt P78368)
T17 construct: purchased DiscoveRx KINOMEscan
Outline: as §1

[18] = target: T18, FAK (Homo sapiens, UniProt Q05397); conditions: read-out: % Retention on Solid Support
T18 construct: purchased DiscoveRx KINOMEscan
T18 sequence (Q05397 whole entry): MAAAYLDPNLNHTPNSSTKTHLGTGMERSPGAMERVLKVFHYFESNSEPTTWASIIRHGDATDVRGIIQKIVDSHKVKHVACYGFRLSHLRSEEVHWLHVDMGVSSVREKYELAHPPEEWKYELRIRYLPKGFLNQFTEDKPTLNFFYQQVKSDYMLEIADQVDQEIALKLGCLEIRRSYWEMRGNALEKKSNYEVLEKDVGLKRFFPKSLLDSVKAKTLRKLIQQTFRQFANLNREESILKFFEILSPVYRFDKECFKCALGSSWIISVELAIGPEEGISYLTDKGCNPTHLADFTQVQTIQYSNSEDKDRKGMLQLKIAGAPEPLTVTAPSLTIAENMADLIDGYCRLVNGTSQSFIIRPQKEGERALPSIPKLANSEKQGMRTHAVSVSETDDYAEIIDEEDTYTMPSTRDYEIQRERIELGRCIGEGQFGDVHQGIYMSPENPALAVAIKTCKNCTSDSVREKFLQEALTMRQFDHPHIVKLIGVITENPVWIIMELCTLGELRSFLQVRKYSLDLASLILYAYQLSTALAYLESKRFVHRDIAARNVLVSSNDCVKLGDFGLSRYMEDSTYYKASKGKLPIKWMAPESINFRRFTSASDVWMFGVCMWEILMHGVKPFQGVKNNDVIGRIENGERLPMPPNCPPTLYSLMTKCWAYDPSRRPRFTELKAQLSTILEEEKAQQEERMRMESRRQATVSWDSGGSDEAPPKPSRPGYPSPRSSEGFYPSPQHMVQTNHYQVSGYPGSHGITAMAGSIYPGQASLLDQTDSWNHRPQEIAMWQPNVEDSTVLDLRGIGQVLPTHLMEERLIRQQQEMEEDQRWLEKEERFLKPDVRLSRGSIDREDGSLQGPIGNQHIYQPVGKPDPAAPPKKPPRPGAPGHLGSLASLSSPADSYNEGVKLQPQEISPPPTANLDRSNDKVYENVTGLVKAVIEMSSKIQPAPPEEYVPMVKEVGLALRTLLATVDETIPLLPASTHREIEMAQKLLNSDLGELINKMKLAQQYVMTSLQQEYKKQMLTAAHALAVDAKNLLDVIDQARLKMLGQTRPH
Outline: as §1

[19] = target: T19, DMPK (Homo sapiens, UniProt Q09013); conditions: read-out: % Retention on Solid Support
T19 construct: purchased DiscoveRx KINOMEscan
Outline: as §1

[20] = target: T20, MINK (Homo sapiens, UniProt Q8N4C8); conditions: read-out: % Retention on Solid Support
T20 construct: purchased DiscoveRx KINOMEscan
T20 sequence (Q8N4C8 whole entry): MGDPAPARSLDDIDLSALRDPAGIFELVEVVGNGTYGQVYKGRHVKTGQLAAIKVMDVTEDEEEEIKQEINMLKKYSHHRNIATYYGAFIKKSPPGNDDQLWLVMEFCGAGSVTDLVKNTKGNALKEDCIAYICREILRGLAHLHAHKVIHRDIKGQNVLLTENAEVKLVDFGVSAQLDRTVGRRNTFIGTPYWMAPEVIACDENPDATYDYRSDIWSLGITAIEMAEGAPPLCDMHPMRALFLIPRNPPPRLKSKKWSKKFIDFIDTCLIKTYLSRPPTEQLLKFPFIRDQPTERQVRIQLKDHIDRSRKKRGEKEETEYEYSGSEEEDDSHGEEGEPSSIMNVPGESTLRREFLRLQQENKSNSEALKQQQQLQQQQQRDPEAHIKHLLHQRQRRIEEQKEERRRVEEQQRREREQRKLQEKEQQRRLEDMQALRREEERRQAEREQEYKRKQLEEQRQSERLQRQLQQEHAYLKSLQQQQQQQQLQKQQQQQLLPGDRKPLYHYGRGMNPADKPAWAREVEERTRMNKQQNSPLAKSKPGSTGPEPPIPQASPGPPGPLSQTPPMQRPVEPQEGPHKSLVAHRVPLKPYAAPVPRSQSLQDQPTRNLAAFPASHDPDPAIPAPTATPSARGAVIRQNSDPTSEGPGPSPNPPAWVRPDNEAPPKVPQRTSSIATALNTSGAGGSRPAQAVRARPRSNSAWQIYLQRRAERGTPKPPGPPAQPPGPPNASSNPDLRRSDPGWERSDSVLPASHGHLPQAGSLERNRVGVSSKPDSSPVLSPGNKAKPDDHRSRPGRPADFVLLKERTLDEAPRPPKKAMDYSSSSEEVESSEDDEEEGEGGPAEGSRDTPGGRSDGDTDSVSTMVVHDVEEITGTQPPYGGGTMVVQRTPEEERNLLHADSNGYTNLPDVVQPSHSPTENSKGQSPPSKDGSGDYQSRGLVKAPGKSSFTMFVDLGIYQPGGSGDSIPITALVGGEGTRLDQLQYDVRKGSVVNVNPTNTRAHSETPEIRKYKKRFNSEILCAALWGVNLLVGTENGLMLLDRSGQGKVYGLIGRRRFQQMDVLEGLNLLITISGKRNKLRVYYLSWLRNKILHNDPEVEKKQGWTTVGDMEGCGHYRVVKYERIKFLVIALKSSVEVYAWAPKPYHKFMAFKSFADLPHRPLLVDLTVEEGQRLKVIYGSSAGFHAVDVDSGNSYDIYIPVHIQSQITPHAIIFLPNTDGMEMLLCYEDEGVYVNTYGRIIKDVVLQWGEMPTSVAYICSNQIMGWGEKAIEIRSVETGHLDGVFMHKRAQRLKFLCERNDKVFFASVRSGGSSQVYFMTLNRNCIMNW
Outline: as §1

[21] = target: T21, AKT3 (Homo sapiens, UniProt Q9Y243); conditions: read-out: % Retention on Solid Support
T21 construct: purchased DiscoveRx KINOMEscan
Outline: as §1

[22] = target: T22, CASK (Homo sapiens, UniProt O14936); conditions: 1 µM i-CDK9; read-out: % Retention on Solid Support
T22 construct: purchased DiscoveRx KINOMEscan
Outline: as §1

[23] = target: T23, MEK6 (Homo sapiens, UniProt P52564); conditions: read-out: % Retention on Solid Support
T23 construct: purchased DiscoveRx KINOMEscan
Outline: as §1

[24] = target: DYRK1A (Homo sapiens, UniProt Q13627); conditions: read-out: % Retention on Solid Support
Outline: as §1

[25] = target: T24, MAP4K5 (Homo sapiens, UniProt Q9Y4K4); conditions: read-out: % Retention on Solid Support
T24 construct: purchased DiscoveRx KINOMEscan
Outline: as §1

[26] = target: T25, FER (Homo sapiens, UniProt P16591); conditions: read-out: % Retention on Solid Support
T25 construct: purchased DiscoveRx KINOMEscan
Outline: as §1

[27] = target: T26, YSK1 (Homo sapiens, UniProt O00506); conditions: read-out: % Retention on Solid Support
T26 construct: purchased DiscoveRx KINOMEscan
Outline: as §1

[28] = target: T27, FLT3(N841I) (Homo sapiens, UniProt P36888, N841I); conditions: read-out: % Retention on Solid Support
T27 construct: purchased DiscoveRx KINOMEscan
Outline: as §1

[29] = target: T28, LKB1 (Homo sapiens, UniProt Q15831); conditions: read-out: % Retention on Solid Support
T28 construct: purchased DiscoveRx KINOMEscan
Outline: as §1

**Q.** Which results are given for `N[C@H]1CC[C@H](Nc2cc(-c3cccc(NCc4cccc(F)c4)n3)c(Cl)cn2)CC1` [i-CDK9, N2′-(trans-4-aminocyclohexyl)-5′-chloro-N6-(3-fluorobenzyl)-2,4′-bipyridine-2′,6-diamine]?
**A.** remaining binding at 1 µM [1]: 100%; remaining binding at 1 µM ([2]; 1 µM i-CDK9): 89%; remaining binding at 10 µM ([2]; 10 µM i-CDK9): 50%; remaining binding at 1 µM ([3]; 1 µM i-CDK9): 72%; remaining binding at 10 µM ([3]; 10 µM i-CDK9): 100%; remaining binding at 1 µM ([4]; 1 µM i-CDK9): 100%; remaining binding at 10 µM ([4]; 10 µM i-CDK9): 82%; remaining binding at 1 µM ([5]; 1 µM i-CDK9): 70%; remaining binding at 10 µM ([5]; 10 µM i-CDK9): 100%; remaining binding at 1 µM ([6]; 1 µM i-CDK9): 66%; remaining binding at 10 µM ([6]; 10 µM i-CDK9): 100%; remaining binding at 1 µM ([7]; 1 µM i-CDK9): 73%; remaining binding at 10 µM ([7]; 10 µM i-CDK9): 14%; remaining binding at 1 µM ([8]; 1 µM i-CDK9): 55%; remaining binding at 10 µM ([8]; 10 µM i-CDK9): 20%; remaining binding at 1 µM ([9]; 1 µM i-CDK9): 0.95%; remaining binding at 10 µM ([9]; 10 µM i-CDK9): 0.7%; % Retention on Solid Support ([10]; 1 µM i-CDK9): 100%; % Retention on Solid Support ([10]; 10 µM i-CDK9): 86%; remaining binding at 1 µM ([11]; 1 µM i-CDK9): 40%; remaining binding at 10 µM ([11]; 10 µM i-CDK9): 3.2%; remaining binding at 1 µM ([12]; 1 µM i-CDK9): 100%; remaining binding at 10 µM ([12]; 10 µM i-CDK9): 75%; remaining binding at 1 µM ([13]; 1 µM i-CDK9): 100%; remaining binding at 10 µM ([13]; 10 µM i-CDK9): 78%; remaining binding at 1 µM ([14]; 1 µM i-CDK9): 100%; remaining binding at 10 µM ([14]; 10 µM i-CDK9): 81%; remaining binding at 1 µM ([15]; 1 µM i-CDK9): 79%; remaining binding at 10 µM ([15]; 10 µM i-CDK9): 74%; remaining binding at 1 µM [16]: 67%; % Retention on Solid Support ([17]; 1 µM i-CDK9): 100%; % Retention on Solid Support ([17]; 10 µM i-CDK9): 66%; remaining binding at 1 µM ([18]; 1 µM i-CDK9): 88%; remaining binding at 10 µM ([18]; 10 µM i-CDK9): 99%; remaining binding at 1 µM ([19]; 1 µM i-CDK9): 100%; remaining binding at 10 µM ([19]; 10 µM i-CDK9): 20%; remaining binding at 1 µM ([20]; 1 µM i-CDK9): 100%; remaining binding at 10 µM ([20]; 10 µM i-CDK9): 65%; remaining binding at 1 µM ([21]; 1 µM i-CDK9): 72%; remaining binding at 10 µM ([21]; 10 µM i-CDK9): 87%; remaining binding at 1 µM [22]: 100%; remaining binding at 1 µM ([23]; 1 µM i-CDK9): 96%; remaining binding at 10 µM ([23]; 10 µM i-CDK9): 100%; remaining binding at 1 µM ([24]; 1 µM i-CDK9): 1.3%; remaining binding at 10 µM ([24]; 10 µM i-CDK9): 0%; remaining binding at 1 µM ([25]; 1 µM i-CDK9): 94%; remaining binding at 10 µM ([25]; 10 µM i-CDK9): 85%; remaining binding at 1 µM ([26]; 1 µM i-CDK9): 56%; remaining binding at 10 µM ([26]; 10 µM i-CDK9): 100%; remaining binding at 1 µM ([27]; 1 µM i-CDK9): 98%; remaining binding at 10 µM ([27]; 10 µM i-CDK9): 96%; remaining binding at 1 µM ([28]; 1 µM i-CDK9): 48%; remaining binding at 10 µM ([28]; 10 µM i-CDK9): 72%; remaining binding at 1 µM ([29]; 1 µM i-CDK9): 93%; remaining binding at 10 µM ([29]; 10 µM i-CDK9): 96%

Reference: PMC4490784, “Compensatory induction of MYC expression by sustained CDK9 inhibition via a BRD4-dependent mechanism” (eLife, 2015)
